According to patent publication US11162944B2, “Compositions and methods” (priority 2015, dated 2021):
Like-named read-outs stand apart in the source and are kept apart here. Marks after values point to notes of the source that are not given here.

System: biomarker (antibody) in serum samples from patients with symptoms of tuberculosis
Assay type: binding, human

CCCCCCCCCCCCCCCCCCCCCC[C@@H](C(=O)OC[C@H]1O[C@H](OC)[C@@H](O)[C@@H]1O)[C@H](O)CCCCCCCCCCCCCCCCC[C@H]1C[C@H]1CCCCCCCCCCCCCCCC[C@@H](OC)[C@@H](C)CCCCCCCCCCCCCCCCCC [Antigen E]
ELISA absorbance at 492 nm (serum sample 1 TB+): 0.42*
ELISA absorbance at 492 nm (serum sample 2 TB+): 0.36*
ELISA absorbance at 492 nm (serum sample 3 TB+): 0.77*
ELISA absorbance at 492 nm (serum sample 4 TB+): 0.90*
ELISA absorbance at 492 nm (serum sample 5 TB+): 0.38*
ELISA absorbance at 492 nm (serum sample 6 TB+): 0.54*
ELISA absorbance at 492 nm (serum sample 7 TB+): 1.15*
ELISA absorbance at 492 nm (serum sample 8 TB+): 0.69*
ELISA absorbance at 492 nm (serum sample 9 TB+): 0.56*
ELISA absorbance at 492 nm (serum sample 10 TB−): 0.35
ELISA absorbance at 492 nm (serum sample 11 TB−): 0.45*
ELISA absorbance at 492 nm (serum sample 12 TB−): 0.29
ELISA absorbance at 492 nm (serum sample 13 TB−): 0.34
ELISA absorbance at 492 nm (serum sample 14 TB−): 0.58*
ELISA absorbance at 492 nm (serum sample 15 TB−): 0.37*
ELISA absorbance at 492 nm (serum sample 16 TB−): 0.42*
ELISA absorbance at 492 nm (serum sample 17 TB−): 0.47*
ELISA absorbance at 492 nm (serum sample 18 TB−): 0.25
ELISA absorbance at 492 nm (serum sample 19 TB−): 0.31
ELISA absorbance at 492 nm (serum sample 20 TB−): 0.38*
ELISA absorbance at 492 nm (serum sample 21 TB−): 0.35
ELISA absorbance at 492 nm (serum sample 22 TB−): 0.24
ELISA absorbance at 492 nm (serum sample 23 TB−): 0.35*
ELISA absorbance at 492 nm (serum sample 24 TB−): 0.26
ELISA absorbance at 492 nm (serum sample 25 TB−): 0.18
ELISA absorbance at 492 nm (serum sample 26 TB−): 0.24
ELISA absorbance at 492 nm (serum sample 27 TB−): 0.33
ELISA absorbance at 492 nm (serum sample 28 TB−): 0.23
ELISA absorbance at 492 nm (serum sample 29 TB−): 0.29
ELISA absorbance at 492 nm (serum sample 30 TB−): 0.24
ELISA absorbance at 492 nm (serum sample 31 TB−): 0.30
ELISA absorbance at 492 nm (serum sample 32 TB−): 0.57*
ELISA absorbance at 492 nm (serum sample 33 TB−): 0.46*
ELISA absorbance at 492 nm (serum sample 34 TB−): 0.51*
ELISA absorbance at 492 nm (serum sample 35 TB−): 0.26
ELISA absorbance at 492 nm (serum sample 36 TB−): 0.23
ELISA absorbance at 492 nm (serum sample 37 TB−): 0.41*
ELISA absorbance at 492 nm (serum sample 38 TB−): 0.40*
ELISA absorbance at 492 nm (serum sample 39 TB−): 0.31
ELISA absorbance at 492 nm (serum sample 40 TB−): 0.25
ELISA absorbance at 492 nm (serum sample 41 TB−): 0.33
ELISA absorbance at 492 nm (serum sample 42 TB−): 0.42*
ELISA absorbance at 492 nm (serum sample 43 TB−): 0.29
ELISA absorbance at 492 nm (serum sample 44 TB−): 0.67*
ELISA absorbance at 492 nm (serum sample 45 TB−): 0.35*
ELISA absorbance at 492 nm (serum sample 46 TB−): 0.26
ELISA absorbance at 492 nm (serum sample 47 TB−): 0.41*
ELISA absorbance at 492 nm (serum sample 48 TB−): 0.17
ELISA absorbance at 492 nm (serum sample 49 TB−): 0.25
ELISA absorbance at 492 nm (serum sample 50 TB−): 0.30
ELISA absorbance at 492 nm (serum sample 51 TB−): 0.18
ELISA absorbance at 492 nm (serum sample 52 TB−): 0.26
ELISA absorbance at 492 nm (serum sample 53 TB−): 0.25
ELISA absorbance at 492 nm (serum sample 54 TB−): 0.20
ELISA absorbance at 492 nm (serum sample 55 TB−): 0.22
ELISA absorbance at 492 nm (serum sample 56 TB−): 0.31
ELISA absorbance at 492 nm (serum sample 57 TB−): 0.29
ELISA absorbance at 492 nm (serum sample 58 TB−): 0.28
ELISA absorbance at 492 nm (serum sample 59 TB−): 0.25
ELISA absorbance at 492 nm (serum sample 60 TB−): 0.29
ELISA absorbance at 492 nm (serum sample 61 TB−): 0.34
ELISA absorbance at 492 nm (serum sample 62 TB−): 0.35*
ELISA absorbance at 492 nm (serum sample 63 TB−): 0.22
ELISA absorbance at 492 nm (serum sample 64 TB−): 3.98*
